Consider seven compounds from patent US20120232062A1, “AZAINDAZOLES TO TREAT FLAVIVIRIDAE VIRUS INFECTION” (EIGER BIOPHARMACEUTICALS, INC., priority 2009, published 2012).

Data set [1] has as its target T1, CYP 2C9 (Homo sapiens, UniProt P11712).
T1 construct: For human liver microsome solution, a stock solution (20 mg/mL (4×final)) is used; from tissue; host or cells: human liver microsomes
In words: CYP inhibition testing, CYP 2C9. Type of data set: in vitro ADME. Particulars: human liver microsomes; >75 = low level of inhibition. As for the experimental part:
(§1) Select compounds are tested for CYP inhibition against five different CYP enzymes: CYP 1A2, CYP 2C9, CYP 2C19, CYP 2D6, CYP 3A4. Individual CYP enzymes are incubated with corresponding substrates with no inhibitor (negative control). Individual CYP enzymes are then incubated with corresponding substrates in the presence of test compound. […] Values of 70>v, w, x, y, z>30 indicate moderate level of inhibition of the corresponding enzyme.
(§2) The following reagents are used: Sodium Phosphate, monobasic; Sodium Phosphate, dibasic; β-Nicotinamide Adenine Dinucleotide Phosphate-Reduced (NADPH), Roche; Milli-Q Water; 0.1 M Potassium phosphate buffer (K-buffer), pH 7.4. The following stock solutions are used. Stock A (136.5 g of monobasic potassium phosphate in 1 L of Milli-Q water (1.0 M)). Stock B (174.2 g of dibasic potassium phosphate in 1 L of Milli-Q water (1.0 M)). 40.5 mL of Stock B is mixed with 9.5 mL of Stock A, and the total volume brought near 500 mL with Milli-Q water to give 0.1 M potassium phosphate buffer. The buffer is titrated with KOH or H3PO4 to pH 7.4. To prepare a cofactor buffer (4×, 8 mM NADPH), 66.7 mg of NADPH tetrasodium salt is dissolved in 10 mL of K-buffer. For human liver microsome solution, a stock solution (20 mg/mL (4×final)) is used.
(§3) The following Positive control stock solutions are prepared: 0.3 mM α-Naphthoflavone (MW: 272.3, 0.0817 mg of α-Naphthoflavone in 1 mL DMSO), 10 mM Sulfaphenazole (MW: 314.4, 3.14 mg of sulfaphenazole in 1 mL DMSO) 100 mM Omeprazole (MW: 345.4, 34.54 mg of omeprazole in 1 mL DMSO), 2.5 mM Quinidine (MW: 324, 0.81 mg of quinidine in 1 mL DMSO), and 2.5 mM Ketoconazole (MW: 531.4, 1.33 mg of ketoconazole in 1 mL DMSO).
(§4) The following substrate stock solutions are prepared: 6 mM Phenacetin (MW: 179.22, 1.075 mg of phenacetin in 1 mL can), 10 mM Diclofenac (MW: 318.83, 3.18 mg of Diclofenac in 1 ml H2O), 35 mM S-Mephenyloin (MW: 218.25, 7.64 mg of s-mephenyloin in 1 mL ACN 10 mM Bufuralol (MW: 297.82, 2.98 mg of Bufuralol in 1 ml H2O), 1 mM Midazolam (MW: 325.77, 0.326 mg of midazolam in 1 mL can), and 10 mM Testosterone (MW: 288.42, 2.88 mg of Testosterone in 1 ml ACN.
(§5) Test compounds and reference compounds (positive control) are prepared in 0.2 mg/ml liver microsome solution. A 0.2 mg/ml liver microsome solution (2×final) is prepared from stock solution by adding 10 μL microsome stock solutions (20 mg/ml) in 990 μL K-buffer. 8 μL of 10 mM test compound stock solution (in DMSO or other solvent at various concentrations) is diluted with 12 μL ACN to make 4 mM solutions. 1:3 serial dilutions are performed using DMSO/ACN (40:60) from 4 mM solution further down seven concentration points (400×final): 4 mM, 1.33 mM, 0.44 mM, 0.148 mM, […], 0.0165 mM, 0.00549 mM, 0 mM. […]

The target in data set [2] is T2, CYP 2C19 (Homo sapiens, UniProt P33261).
T2 construct: For human liver microsome solution, a stock solution (20 mg/mL (4×final)) is used; from tissue; host or cells: human liver microsomes
T2 sequence (P33261 whole entry): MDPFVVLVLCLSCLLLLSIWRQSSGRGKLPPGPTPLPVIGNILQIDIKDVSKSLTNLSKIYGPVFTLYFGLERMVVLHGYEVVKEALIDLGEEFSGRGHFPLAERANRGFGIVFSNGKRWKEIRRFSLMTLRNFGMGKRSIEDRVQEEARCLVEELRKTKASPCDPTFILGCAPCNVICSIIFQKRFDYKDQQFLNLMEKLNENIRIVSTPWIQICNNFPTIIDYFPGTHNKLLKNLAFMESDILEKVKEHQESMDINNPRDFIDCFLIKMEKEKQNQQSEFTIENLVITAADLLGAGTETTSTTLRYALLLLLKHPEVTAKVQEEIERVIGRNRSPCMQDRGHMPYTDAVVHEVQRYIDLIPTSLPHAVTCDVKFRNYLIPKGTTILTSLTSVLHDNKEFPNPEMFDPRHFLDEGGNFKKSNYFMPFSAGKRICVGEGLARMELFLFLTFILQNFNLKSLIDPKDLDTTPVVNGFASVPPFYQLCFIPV
Description: CYP inhibition testing, CYP 2C19. Type of data set: in vitro ADME. Particulars: human liver microsomes; >75 = low level of inhibition. The method, then: as §1, §2, §3, §4, §5
On the technique in general: Microsomes from liver hold many membrane-bound enzymes, among them those of drug oxidation.

The target in data set [3] is T3, CYP 2D6 (Homo sapiens, UniProt P10635).
T3 construct: For human liver microsome solution, a stock solution (20 mg/mL (4×final)) is used; from tissue; host or cells: human liver microsomes
T3 sequence (P10635 whole entry): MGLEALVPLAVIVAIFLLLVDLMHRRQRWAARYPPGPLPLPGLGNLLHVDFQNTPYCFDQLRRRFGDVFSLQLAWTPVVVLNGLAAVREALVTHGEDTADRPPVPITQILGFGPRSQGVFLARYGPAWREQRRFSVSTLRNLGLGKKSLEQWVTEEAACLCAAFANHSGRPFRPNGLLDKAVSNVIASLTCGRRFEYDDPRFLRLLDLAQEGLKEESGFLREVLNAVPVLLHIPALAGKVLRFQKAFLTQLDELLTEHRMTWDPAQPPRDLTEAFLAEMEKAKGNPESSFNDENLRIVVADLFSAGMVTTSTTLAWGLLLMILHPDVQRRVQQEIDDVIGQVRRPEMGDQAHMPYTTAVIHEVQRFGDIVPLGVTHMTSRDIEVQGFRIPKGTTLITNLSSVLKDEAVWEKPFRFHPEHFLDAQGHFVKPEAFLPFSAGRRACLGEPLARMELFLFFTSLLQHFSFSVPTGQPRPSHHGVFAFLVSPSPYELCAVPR
Description: CYP inhibition testing, CYP 2D6. Type of data set: in vitro ADME. Particulars: human liver microsomes; >75 = low level of inhibition. The method, then:
as §1, §2, §3, §4, §5

The target of data set [4] is T4, CYP 3A4 (Homo sapiens, UniProt P08684).
T4 construct: For human liver microsome solution, a stock solution (20 mg/mL (4×final)) is used; from tissue; host or cells: human liver microsomes
T4 sequence (P08684 whole entry): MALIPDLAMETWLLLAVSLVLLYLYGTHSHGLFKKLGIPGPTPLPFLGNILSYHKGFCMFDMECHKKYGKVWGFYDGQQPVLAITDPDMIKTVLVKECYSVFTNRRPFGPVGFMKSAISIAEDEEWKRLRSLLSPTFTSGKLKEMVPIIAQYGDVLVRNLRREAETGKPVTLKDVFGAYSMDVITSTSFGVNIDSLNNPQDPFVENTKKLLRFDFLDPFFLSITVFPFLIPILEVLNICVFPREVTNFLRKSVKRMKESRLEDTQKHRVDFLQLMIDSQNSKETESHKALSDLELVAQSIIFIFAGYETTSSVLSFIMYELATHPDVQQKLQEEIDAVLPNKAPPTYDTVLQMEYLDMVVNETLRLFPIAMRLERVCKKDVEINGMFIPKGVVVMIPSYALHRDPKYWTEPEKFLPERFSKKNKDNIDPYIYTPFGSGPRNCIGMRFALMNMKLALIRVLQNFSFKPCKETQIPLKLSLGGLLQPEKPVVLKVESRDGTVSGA
Description: CYP inhibition testing, CYP 3A4. Type of data set: in vitro ADME. Particulars: human liver microsomes; >75 = low level of inhibition. As for the experimental part:
as §1, §2, §3, §4, §5

Data set [5] in a line: In vivo rat pharmacokinetic studies. Particulars: for concentration in liver, fold above the EC50: rat liver after PO 20 or 40 mpk, for qd dosing. From the text: In vivo rat pharmacokinetic studies are designed to measure bioavailability, tissue distribution and metabolite identification in rats after intravenous (IV) and oral (PO) dosing. A full PK study typically includes two study arms (IV and PO) and takes serial blood samples from multiple animals per compound. The assay as described in this example was developed by BioDuro, a corporation of China with its principal office located at Building E, No. 29 Life Science Park Road, Changping District, Beijing, 102206, P.R. China.
Each compound was singly dosed both IV (1 mpk (mg/kg) to rats 1-3) and PO (20 or 40 mpk to rats 4-18), followed by blood draws and liver concentration studies (for PO dosed rats) from each animal at each time point.

[6] abbreviates: 20 mg/kg, rat, PO 20 mpk, liver/plasma, read-out: L/P Ratio.
Where [7] appears, read: liver, 20 mg/kg, rat, PO 20 mpk, read-out: Liver.
The mark [8] stands for this setting: plasma, 20 mg/kg, rat, PO 20 mpk vs IV 1 mpk.
Where [9] appears, read: plasma, 20 mg/kg, rat, PO 20 mpk, read-out: Plasma.
Setting [10] is: 40 mg/kg, rat, PO 40 mpk, liver/plasma, read-out: L/P Ratio.
The mark [11] stands for this setting: liver, 40 mg/kg, rat, PO 40 mpk, read-out: Liver.
The mark [12] stands for this setting: plasma, 40 mg/kg, rat, PO 40 mpk, read-out: Plasma.

The structures appear in SMILES notation. Where two headings read alike, the source gives them in different places.

T1 sequence (P11712 whole entry): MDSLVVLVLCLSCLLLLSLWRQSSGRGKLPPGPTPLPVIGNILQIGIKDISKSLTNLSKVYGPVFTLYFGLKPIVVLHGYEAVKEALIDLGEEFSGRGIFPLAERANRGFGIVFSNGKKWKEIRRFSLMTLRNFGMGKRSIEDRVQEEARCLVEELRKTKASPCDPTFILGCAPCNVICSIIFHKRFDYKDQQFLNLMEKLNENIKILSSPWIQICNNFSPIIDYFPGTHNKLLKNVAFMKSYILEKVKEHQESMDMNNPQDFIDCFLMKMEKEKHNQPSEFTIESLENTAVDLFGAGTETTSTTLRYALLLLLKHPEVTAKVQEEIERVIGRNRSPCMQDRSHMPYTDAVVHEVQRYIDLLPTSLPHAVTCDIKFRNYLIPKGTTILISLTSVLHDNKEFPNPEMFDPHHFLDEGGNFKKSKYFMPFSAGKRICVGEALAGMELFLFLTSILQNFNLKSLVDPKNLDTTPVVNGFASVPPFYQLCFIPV

As to `CCC(CC)Oc1ccc2c(C(=O)NC3CCNCC3)n[nH]c2n1` [compound 726], in data set [1], the “CYP (% negative controls) 2C9” value came to 84 % negative controls. Further, the “CYP (% negative controls) 2C19” value in data set [2] is 74 % negative controls. In data set [3], the “CYP (% negative controls) 2D6” value is recorded as 72 % negative controls. Moreover, in data set [4], the “CYP (% negative controls) 3A4” value is given as 60 % negative controls.
Turning to `Cn1nc(C(=O)NC2CCN(CCN3CCCCC3)CC2)c2ccc(N3CCCCCC3)nc21` [compound 1047], the “CYP (% negative controls) 2C9” value in data set [1] was found to be 91 % negative controls. In addition, in data set [2], the “CYP (% negative controls) 2C19” value is given as 92 % negative controls. In data set [3], the “CYP (% negative controls) 2D6” value is 72 % negative controls. The “CYP (% negative controls) 3A4” value in data set [4] is 113 % negative controls.
As to `CC(C)N1CCC(NC(=O)c2nn(C)c3nc(N4CCCCCC4)ccc23)CC1` [EBP1604], in data set [5] (setting [6]), the Kp at 0.25 h amounted to 618 and the Kp at 1 h stood at 275. Moreover, in data set [5] (setting [7]), the concentration at 0.25 h came out at 915 ng/g, the concentration at 1 h worked out at 4870 ng/g, the concentration at 4 h was found to be 203 ng/g and the concentration at 8 h turned out to be 43 ng/g. Moreover, in data set [5] (setting [7]), the concentration at 24 h was found to be 0 ng/g. The bioavailability (in general, dose-corrected exposure relative to a reference, in per cent) in data set [5] (setting [8]) turned out to be 2%. Besides, in data set [5] (setting [9]), the concentration at 0.25 h was found to be 0.8 ng/mL, the concentration at 1 h was 17.9 ng/mL, the concentration at 4 h came to 0 ng/mL and the concentration at 8 h worked out at 0 ng/mL. Besides, the concentration at 24 h in data set [5] (setting [9]) came out at 0 ng/mL. Further, in data set [5], the “concentration in liver, fold above the EC50” value is recorded as “up to 6 fold”. Besides, the “Liver Conc (range)” value in data set [5] (rat, PO 20 mpk, over the period given, 20 mg/kg) is 2 to 12 µM.
`Cn1nc(C(=O)NC2CCN(CCN3CCCC3)CC2)c2ccc(N3CCCCCC3)nc21` [EBP1597]: in data set [5] (setting [10]), the Kp at 0.25 h is 1670, the Kp at 4 h stood at 717 and the Kp at 8 h is 582. The Kp at 12 h in data set [5] (40 mg/kg, rat, PO 40 mpk, 12 h, liver/plasma, read-out: L/P Ratio) came to 527. Moreover, in data set [5] (setting [11]), the concentration at 0.25 h came to 2620 ng/g, the concentration at 4 h came out at 8120 ng/g and the concentration at 8 h stood at 1500 ng/g. The concentration at 12 h in data set [5] (liver, 40 mg/kg, rat, PO 40 mpk, 12 h, read-out: Liver) amounted to 1030 ng/g. In data set [5] (liver, 40 mg/kg, rat, PO 40 mpk, over the period given, read-out: Liver Conc (range)), the liver concentration range at 12 h fell in the range of 2 to 18 µM. The compound also showed a bioavailability in data set [5] (plasma, 40 mg/kg, rat, PO 40 mpk vs IV 1 mpk) of 9%. Moreover, in data set [5] (setting [12]), the concentration at 0.25 h stood at 1.6 ng/mL, the concentration at 4 h stood at 10.3 ng/mL and the concentration at 8 h was 2.6 ng/mL. Besides, the concentration at 12 h in data set [5] (plasma, 40 mg/kg, rat, PO 40 mpk, 12 h, read-out: Plasma) amounted to 2.5 ng/mL. For the same compound, the “concentration in liver, fold above the EC50” value in data set [5] is 2-18 fold. In addition, the “Liver Conc (range)” value in data set [5] (rat, PO 40 mpk, over the period given) lay in the range of 2 to 18 µM.
Consider `CCN1CCC(NC(=O)c2nn(C)c3nc(N4CCCCCC4)ccc23)CC1` [EBP1595], for which, in data set [5] (setting [6]), the Kp at 0.25 h came out at 652, the Kp at 1 h was 172 and the Kp at 4 h was 67. In data set [5] (setting [7]), the concentration at 0.25 h amounted to 1900 ng/g, the concentration at 1 h worked out at 12400 ng/g, the concentration at 4 h was determined as 1400 ng/g and the concentration at 8 h is 132 ng/g. Besides, the concentration at 24 h in data set [5] (setting [7]) worked out at 0 ng/g. For the same compound, the bioavailability in data set [5] (setting [8]) came out at 9%. In data set [5] (setting [9]), the concentration at 0.25 h was 1.6 ng/mL, the concentration at 1 h is 96.4 ng/mL, the concentration at 4 h stood at 14 ng/mL and the concentration at 8 h amounted to 0 ng/mL. Moreover, the concentration at 24 h in data set [5] (setting [9]) is 0 ng/mL. In addition, the “concentration in liver, fold above the EC50” value in data set [5] is 2-32 fold.
Take `Cn1nc(C(=O)NC2CCNCC2)c2ccc(N3CCCCCC3)nc21.O=C(O)C(F)(F)F.O=C(O)C(F)(F)F` [compound 697]: the “CYP (% negative controls) 2C9” value in data set [1] came to 92 % negative controls. In addition, the “CYP (% negative controls) 2C19” value in data set [2] stood at 78 % negative controls. In data set [3], the “CYP (% negative controls) 2D6” value was found to be 80 % negative controls. For the same compound, the “CYP (% negative controls) 3A4” value in data set [4] is listed as 110 % negative controls.
For `Cn1nc(C(=O)NC2CCN(CCN3CCCCC3)CC2)c2ccc(N3CCCCCC3)nc21` [EBP1047], in data set [5] (setting [6]), the Kp at 0.25 h was found to be 78.3, the Kp at 1 h is 558, the Kp at 4 h came to 261 and the Kp at 8 h was 182. For the same compound, in data set [5] (setting [7]), the concentration at 0.25 h turned out to be 382 ng/g, the concentration at 1 h is 14000 ng/g, the concentration at 4 h came to 2670 ng/g and the concentration at 8 h stood at 563 ng/g. The concentration at 24 h in data set [5] (setting [7]) worked out at 5.35 ng/g. Also, the bioavailability in data set [5] (setting [8]) was 9%. In data set [5] (setting [9]), the concentration at 0.25 h came out at 5.1 ng/mL, the concentration at 1 h was 24.1 ng/mL, the concentration at 4 h came to 10.4 ng/mL and the concentration at 8 h stood at 2.9 ng/mL. Also, the concentration at 24 h in data set [5] (setting [9]) is 0 ng/mL. Moreover, the “concentration in liver, fold above the EC50” value in data set [5] is listed as 2-60 fold. Besides, the “Liver Conc (range)” value in data set [5] (rat, PO 20 mpk, over the period given) lay within 1 to 30 µM.
